Measurements published in patent publication US20090209554A1, “Thiazoliums as transketolase inhibitors” (ARRAY BIOPHARMA INC., priority 2004, published 2009).

Columns and labels:
[1] = biological target: T1, transketolase (TK) in colon carcinoma HCT116 cells (Homo sapiens, UniProt P29401); assay: Cellular transketolase inhibition assay in HCT116; assay type: cell-based; details: colon carcinoma HCT116, thiamine-free DMEM, 48 h after compound treatment, TK activity in lysate
T1 construct: endogenous in cells; host or cells: HCT116
T1 sequence (P29401 1-623): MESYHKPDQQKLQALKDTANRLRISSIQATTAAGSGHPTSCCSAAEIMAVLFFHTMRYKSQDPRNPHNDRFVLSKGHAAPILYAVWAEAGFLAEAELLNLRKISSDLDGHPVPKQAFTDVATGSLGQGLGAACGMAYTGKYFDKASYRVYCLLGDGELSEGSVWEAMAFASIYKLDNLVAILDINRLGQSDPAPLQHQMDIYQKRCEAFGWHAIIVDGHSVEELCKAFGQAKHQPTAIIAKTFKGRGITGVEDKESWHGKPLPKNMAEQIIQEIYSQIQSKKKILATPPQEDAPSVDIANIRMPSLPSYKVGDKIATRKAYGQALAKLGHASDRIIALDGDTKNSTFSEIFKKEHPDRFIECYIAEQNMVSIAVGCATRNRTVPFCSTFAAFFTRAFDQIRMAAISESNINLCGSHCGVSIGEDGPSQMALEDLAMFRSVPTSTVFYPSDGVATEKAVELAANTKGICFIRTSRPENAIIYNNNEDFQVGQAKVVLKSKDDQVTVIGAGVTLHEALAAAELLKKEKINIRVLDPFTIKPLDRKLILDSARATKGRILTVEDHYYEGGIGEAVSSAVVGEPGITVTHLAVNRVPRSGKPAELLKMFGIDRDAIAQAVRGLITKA
Experimental: Determining Inhibition Constants of TPP Mimetics in Cellular Assay
Log-phase cells were trypsinized, washed and resuspended in thiamine-free DMEM. Optimization of the initial cell counts was carried out for each cell line prior to IC50 measurements. […] Using this initial cell count, IC50 could be monitored for six days.
Media containing 8,000 cells (95 μl) were used to seed individual wells in a 96-well clear-bottom cell cultured-treated sterile plate. Inhibitor compounds were dissolved in 100% DMSO as 10 mM solutions. Serial dilutions were then made in 100% DMSO to make up a 100× stock, then diluted to 20× in double-deionized H2O (ddH2O). Twenty-four hours after seeding, 5 μl of 20× inhibitor compound stock solution was added to the cells so that the final concentration of DMSO was 1%. Media were changed after 24 hours. Forty-eight hours after inhibitor compound treatment, the plates were inverted to remove media and blotted on a paper towel. The plates were then either subjected to enzymatic reactions immediately or were frozen at −20° C. for future assays.
Lysis buffer (20 mM HEPES, pH 7.5, 1 mM EDTA, 0.2 g/l Triton X-100® and 0.2 g/L sodium deoxycholate, supplemented with 1 mM DTT and 1 mM PMSF just before use, 80 μl) were added to each well of the assay plate and allow cell lysis at RT with shaking. Then 15 ul of 5× assay buffer containing final concentrations of 50 mM HEPES, 40 mM KCl, 2.5 mM MgCl2, 5 mM NaArsenate, 1 mM NAD, 2 unit/ml glyceraldehyde-3-phosphate dehydrogenase (GAPDH) was added to the 80 ul of lysate. Reaction kinetics were monitored on a fluorescent plate reader to allow any possible background activity via GAPDH to burn out. Then 5 ul of substrate mix containing final concentrations of 0.5 mM ribose-5-phosphate and 0.5 mM xylulose-5-phosphate was added to initiate the reaction. Monitor reaction kinetics were monitored using a fluorescent plate reader and the slope of the initial linear range was recorded as the velocity of the reaction (FU/min). Enzymatic inhibition was expressed as percent of control wells that were not treated with compounds. The values (y) were plotted as function of the log concentration (x) and fitted to a sigmoidal dose-response curve with variable slopes that bears the equation: y-bottom+(top-bottom)/(1+10̂((log EC50−x)*hillslope)).

[2] = biological target: T2, transketolase (purified TK apo enzyme) (Homo sapiens, UniProt P29401); assay: TPK-apoTK coupled cell-free TK inhibition assay (pyrophosphorylated compounds competing with TPP); assay type: biochemical; details: compound enzymatically pyrophosphorylated by TPK1; 100 nM TK, 20 μM TPP
T2 sequence (P29401 1-623): T1 sequence (P29401 1-623)
Experimental: Determining Inhibition Constants of TPP Mimetics in Cell Free Assay (Purified TK apo Enzyme) Compounds scored as TPK1 substrates were then enzymatically converted to pyrophosphate and assessed for an ability to compete with TPP in inhibiting TK activity. The TK inhibition assay was carried out as follows. The pyrophosphorylation reaction mix consisted of 50 mM HEPES, 1 mM DTT, 1 mM MgCl2, pH 8.0, 1 to 10 mM thiamine analog, and 40 mM Mg-ATP. TKP1 (46.2 μg) was added in 10 μL aliquots every hour for 5 hours. The reaction mix was then incubated overnight at 4° C. TPK1 was removed by ultra-filtration using a 10,000 MWCO filter. The extent of reaction was monitored as described above. […] The above reaction mix (40 μL) was placed in a well of a Costar 3695 half-area plate and pre-incubated at room temperature for 30 min. It was then incubated for 2 minutes at 30° C. The reaction was initiated with the addition of 10 μL pentose phosphates (xylulose 5-phosphate and ribose 5-phosphate) with a final concentration of 0.5 mM. The reaction was monitored at 340 nm using a Molecular Devices Spectramax M2 plate reader. “TPK-TK” in the second column in Table 1 designates the thiamine pyrophosphate kinase/transketolase coupled reaction.

| IC50 [1] | IC50 [2] | Compound |
| --- | --- | --- |
| > 100000 nM | 336 nM | Cc1c(CCO)sc[n+]1Cc1ccccc1 |
| > 100000 nM | 109 nM | Cc1c(CCO)sc[n+]1Cc1ccccc1[N+](=O)[O-] |
| > 100000 nM | 198 nM | Cc1c(CCO)sc[n+]1Cc1ccccc1N |
| > 100000 nM | – | Cc1c(CCO)sc[n+]1Cc1cc([N+](=O)[O-])ccc1O |
| > 100000 nM | – | Cc1c(CCO)sc[n+]1Cc1ccc(C(=O)O)cc1 |
| 24300 nM | 8.83 nM | CC(=O)Nc1ccc(C[n+]2csc(CCO)c2C)cc1 |
| > 100000 nM | – | Cc1c(CCO)sc[n+]1Cc1ccccn1 |
| > 100000 nM | – | Cc1c(CCO)sc[n+]1Cc1cccc(N2C(=O)c3ccccc3C2=O)n1 |
| 731 nM | 70.7 nM | Cc1c(CCO)sc[n+]1Cc1cccnc1 |
| 111 nM | 36.5 nM | Cc1c(CCO)sc[n+]1Cc1cccnc1N |
| > 33000 nM | 123 nM | Cc1c(CCO)sc[n+]1Cc1cccnc1C#N |
| 119 nM | 104 nM | Cc1c(CCO)sc[n+]1Cc1ccc(C(F)(F)F)nc1N |
| 156 nM | – | Cc1c(CCO)sc[n+]1Cc1ccc(Cl)nc1N |
| 862 nM | 109 nM | Cc1cnc(N)c(C[n+]2csc(CCO)c2C)c1 |
| 471 nM | 387 nM | Cc1c(CCO)sc[n+]1Cc1ccc(C(F)(F)F)nc1 |
| 1610 nM | 6.95 nM | Cc1c(CCO)sc[n+]1Cc1ccc(N)nc1 |
| 3150 nM | 143 nM | Cc1c(CCO)sc[n+]1Cc1ccc(N2C(=O)c3ccccc3C2=O)nc1 |
| 37800 nM | – | Cc1cncc(C[n+]2csc(CCO)c2C)c1 |
| 119000 nM | 294 nM | Cc1c(CCO)sc[n+]1Cc1cncc(C#N)c1 |
| > 100000 nM | 382 nM | COC(=O)c1cncc(C[n+]2csc(CCO)c2C)c1 |

| IC50 [1] | IC50 [2] | Compound |
| --- | --- | --- |
| 23900 nM | 64.2 nM | Cc1c(CCO)sc[n+]1Cc1cnccc1N |
| 9540 nM | 29.1 nM | Cc1ccc(C[n+]2csc(CCO)c2)c(N)n1 |
| 30 nM | 22 nM | Cc1ccc(C[n+]2csc(CCO)c2C)c(N)n1 |
| 6 nM | – | CC(=O)OCCc1sc[n+](Cc2ccc(C)nc2N)c1C |
| 74 nM | – | CCc1ccc(C[n+]2csc(CCO)c2C)c(N)n1 |
| 354 nM | 57.1 nM | Cc1c(CCO)sc[n+]1Cc1ccc(C#N)nc1N |
| 12500 nM | – | Cc1cc(C)c(C[n+]2csc(CCO)c2)c(N)n1 |
| 131 nM | 33.8 nM | Cc1cc(C)c(C[n+]2csc(CCO)c2C)c(N)n1 |
| 803 nM | 22.5 nM | CC(=O)Nc1ccc(C[n+]2csc(CCO)c2C)c(N)n1 |
| 170000 nM | – | COc1ccc(C[n+]2csc(CCO)c2C)c(NC(C)=O)n1 |
| 489 nM | 35.6 nM | Cc1ccc(C[n+]2cc(CCO)sc2C)c(N)n1 |
| 26300 nM | – | Cc1cc(C)c(C[n+]2cc(CCO)sc2C)c(N)n1 |
| 26 nM | 75.5 nM | CCc1sc(CCO)c(C)[n+]1Cc1ccc(C)nc1N |
| 34 nM | 91.4 nM | Cc1ccc(C[n+]2c(C(C)O)sc(CCO)c2C)c(N)n1 (stereo not shown) |
| 25500 nM | – | Cc1ccc(C[n+]2c(-c3ccc4c(c3)OCO4)sc(CCO)c2C)c(N)n1 |
| 838 nM | – | Cc1ccc(C[n+]2c(Cc3cccnc3)sc(CCO)c2C)c(N)n1 |
| 1720 nM | – | CCc1c(CCO)sc[n+]1Cc1ccc(C)nc1N |
| 236 nM | 25.1 nM | Cc1ccc(C[n+]2csc(CCO)c2CO)c(N)n1 |
| 237 nM | – | Cc1ccc(C[n+]2c(C)sc(CO)c2C)c(N)n1 |
| 269 nM | 53.4 nM | Cc1ccc(C[n+]2csc(C(O)CO)c2C)c(N)n1 (stereo not shown) |

| IC50 [1] | IC50 [2] | Compound |
| --- | --- | --- |
| 2200 nM | 26.8 nM | Cc1ccc(C[n+]2csc([C@@H](O)CO)c2C)c(N)n1 |
| 62 nM | 28.1 nM | Cc1ccc(C[n+]2csc([C@H](O)CO)c2C)c(N)n1 |
| 3160 nM | 90 nM | Cc1cc(C)c(C[n+]2csc(C(O)CO)c2C)c(N)n1 (stereo not shown) |
| 1030 nM | – | Cc1ccc(C[n+]2csc(CCCO)c2C)c(N)n1 |
| 2170 nM | – | Cc1ccc(C[n+]2csc(CCC#N)c2C)c(N)n1 |
| 2330 nM | – | COC(=O)CCc1sc[n+](Cc2ccc(C)nc2N)c1C |
| > 100000 nM | 421 nM | Cc1c(CCO)sc[n+]1Cc1ccncc1 |
| > 100000 nM | 1430 nM | Cc1c(CCO)sc[n+]1Cc1cncnc1 |
| 214 nM | – | Cc1ncc(C[n+]2c(C)sc(CCO)c2C)c(N)n1 |
| > 100000 nM | 851 nM | Cc1ncc(C[n+]2c(C(C)O)sc(CCO)c2C)c(N)n1 (stereo not shown) |
| > 100000 nM | – | COc1ncc(CO)c(N)n1 |
| 16500 nM | 61.2 nM | Cc1c(CCO)sc[n+]1Cc1nccnc1N |
| 408 nM | 15.2 nM | Cc1cnc(C[n+]2csc(CCO)c2C)c(N)n1 |
| 5150 nM | – | Cc1cc(C[n+]2csc(CCO)c2C)no1 |
| > 33000 nM | 138 nM | Cc1c(CCO)sc[n+]1Cc1ccsc1C#N |
| > 33000 nM | – | Cc1c(CCO)sc[n+]1Cc1ccsc1C(N)=O |
| 31 nM | – | Cc1ccc(C[n+]2c(C)sc(CCO)c2C)c(N)n1 [drawing 48] |
| 49 nM | 24.6 nM | Cc1ccc(C[n+]2c(C)sc(CCO)c2C)c(N)n1 [drawing 55] |

| Compound | IC50 [1] | IC50 [2] |
| --- | --- | --- |
| Cc1ncc(C[n+]2csc(CCO)c2C)c(=O)[nH]1 | 76 nM | – |
